We go through two compounds from patent US8906694B2, “Organometallic fluorescent sensors for nitric oxide detection and imaging” (The Florida International University Board of Trustees, priority 2012, dated 2014).

Data set [1] in a line: Fluorescence spectroscopy NO sensing in solution after addition of NO donor MAHMA-NONOate. As to conditions: NO donor MAHMA-NONOate in buffer solution; aerobic and anaerobic conditions for the THF complex. As for the experimental part:
A pilot Re(I)-phenanthroline complex: Re(phen)(CO)2(THF)(CF3SO3) complex was synthesized from Re(phen)(CO)3(CF3SO3) (Scheme 3) by photochemical substitution of a CO with THF in situ and was tested for NO sensing by fluorescence spectroscopy after the addition of the NO donor: MAHMA-NONOate (Cayman Pharmaceuticals) at the are 10 μM-200 μM range (FIGS. 1 and 2). […] It is worth mentioning the dye is highly sensitive to NO, since it is only used at a concentration of only 10 μM, and responds to concentrations of NO donor in the μM level as well (FIG. 5). […] Furthermore live cell experiments with Re(phen)(CO)2(THF)(CF3SO3) prepared by thermal substitution gave similar results.
A stepwise experimental protocol for preparation and testing of the Rhenium organometallic sensor and comparison with existing technology is as follows: • 1) Preparation of a stock solution of a 2.0 mM NO donor solution by dissolving 0.6 mg of (Z)-1-[N-Methyl-N-[6-(N-methylammoniohexyl)amino]]diazen-1-ium-1,2-diolate (Methylamine hexamethylene methylamine NONOate or MAHMA NONOate) in 0.01 M NaOH. Solution is kept at 4° C. until use. • 2) Preparation of a 1.0 mM stock solution of probe LRe(CO)3(OSO2CF3) in DMSO or THF (L is phen or substituted analog). For the Re probe the solution is undergoing the following steps: […]

Data set [2] deals with Rat Aortic Endothelial Cells. Briefly: Fluorescence microscopy NO imaging in living cells with NO donor addition. Type of data set: cell-based. To be noted: for absorptivity of the dye into the cells: living cells, fluorescence microscopy. The text has this: Rat Aortic Endothelial Cells acquired from Cell Biologics were used for the cell based experiments. Fetal Bovine Serum (FBS) and DMSO were bought from ATCC. Penicillin-Streptomycin and endothelial cell growth supplement from bovine neural tissue were bought from Sigma Aldrich. DMEM/F-12 medium, PBS and Trypsin (0.05% EDTA) were bought from Invitrogen. Cell culture flasks and dishes were bought from Fisher Scientific. MAHMA/NO was bought from Cayman Chemicals.
Cell culture: Rat Aortic Endothelial Cells were grown (passage 4-10) in DMEM/F-12 medium supplemented with 10% FBS, 1% penicillin-streptomycin, and endothelial cell growth supplement in a humidified tissue culture incubator at 37° C. equilibrated with 95% air/5% CO2. For experimentation, cells were cultured in 35×10 mm dishes seeded with 2×10^5 cells and used at 60-80% confluency.
After the loading phase with the organometallic Re-complex (10 μM for 45 min) cells were rinsed off excess dye using PBS buffer solution. This was followed by an exposure to 10 μM MAHMA/NO for 10-15 minutes. Images were then acquired with a fluorescence microscope (Olympus IX 81 fitted with a CCD camera (Qimaging) at 350 nm (excitation) and 450 nm (emission) with 20× zoom, with exposition time of 2668 ms. The data were analyzed with IPLAB software (BioVision Technologies).
Conditions of incubator: 37° C., 21% O2, 5% CO2, with cell culture harvested and plated for at least 24 hours.
[…] of Re(phen)(THF)(CO)2(CF3SO3) or Re(phen)(CO)2(PPh3)(CF3SO3) (1.6×10^−3 M) was prepared in THF. 62.5 μL of this solution was added to 138 μL of acetone. This new solution was added to 800 μL of 10 mM PBS (Phosphate Buffer Saline) buffer solution, resulting in v/v ratios of 6% THF, 14% acetone, and 80% Buffer. This new solution was further diluted 1/10 with PBS Buffer before added to the cells, resulting to final solvent composition of 0.6% THF, 1.4% acetone, and 98% v/v aqueous buffer. This final solution contains the organometallic Re dye at 10 μM concentration, (solution A) before contact with NO donor solutions.
A blank (0 μM NO donor: MAHMA NONOate) and 3 stock solutions (100 μM, 500 μM, 1 mM) MAHMA NONOate were prepared in NaOH 0.01M, which after addition to the media result to final NO donor concentrations of 0 μM, 1 μM, 5 μM, 10 μM.
The old media were poured out from the plates. The plates were rinsed 2 times with 1 mL PBS 10 mM. The next reagents were added to each plate in the following order: […] of DMEM/FBS/Penicillin Media, […] of PBS 10 mM, and 100 μL of Re complex stock in 20% organic mixture. The plates were incubated for 75 minutes.
The reactive media was poured out from the plate. The plates were rinsed 2 times with 1 mL PBS 10 mM. […]

For `C1CCOC1.O=[C]=[Re]1(=[C]=O)([O]S(=O)(=O)C(F)(F)F)[N]2C=CC=c3ccc4c(c32)[N]1C=CC=4` [Re(phen)(CO)2(THF)(CF3SO3)], in data set [1], the “fluorescent response to NO donor addition in solution” value is “responds directly to NO”. The “absorptivity of the dye into the cells” value in data set [2] (dye 10 μM) is recorded as “good absorptivity”. Further, the “fluorescence response to NO donor addition in living cells” value in data set [2] (dye 10 μM, MAHMA-NONOate 0-10 μM, λexc=350 nm, λem=450 nm) is listed as “direct response”.
As to `O=[C]=[Re]1(=[C]=O)([O]S(=O)(=O)C(F)(F)F)([PH](c2ccccc2)(c2ccccc2)c2ccccc2)[N]2C=CC=c3ccc4c(c32)[N]1C=CC=4` [Re(phen)(CO)2(PPh3)(CF3SO3)], the “fluorescent response to NO donor addition in solution” value in data set [1] is “shows response to NO addition”. In data set [2] (at the 10 μM level), the “toxicity to the cells” value was “no toxicity”. In data set [2] (dye 10 μM), the “absorptivity of the dye into the cells” value is “good dye absorptivity into cells”.
